Source: patent US20060069132A1, “Azolecarboxamide herbicides” (priority 2004, published 2006)

Assays:
[1] = tested on: Surinam grass; experiment: Test B pre-/postemergence herbicide test; format: in vivo, Urochloa decumbens; details: for Surinam Grass plant response rating: postemergence
Summary of the method: (§1)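 Greenhouse pot assay with simultaneous preemergence (treated seed) and postemergence (2–18 cm seedlings) applications of surfactant-containing, non-phytotoxic solvent formulations. Response scored visually 13–15 days later on a 0–100 scale, 100 meaning complete control.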

[2] = tested on: redroot pigweed; experiment: Test A pre-/postemergence herbicide test; format: in vivo, Amaranthus retroflexus
Summary of the method: (§2)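 Both application timings were run together: directed soil spray over freshly planted seeds in sandy loam, and runoff spray onto 2–10 cm seedlings. Evaluation after ~10 days in greenhouse used a 0–100 visual scale versus untreated controls.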

[3] = tested on: large crabgrass; experiment: Test A pre-/postemergence herbicide test; format: in vivo, Digitaria sanguinalis
Summary of the method: as §2

[4] = tested on: large crabgrass; experiment: Test B pre-/postemergence herbicide test; format: in vivo, Digitaria sanguinalis; details: for Crabgrass, Large plant response rating: postemergence
Summary of the method: as §1

[5] = tested on: rice; experiment: Test B pre-/postemergence herbicide test; format: in vivo, Oryza sativa; details: preemergence
Summary of the method: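 Species tested were Echinochloa crus-galli, Ipomoea coccinea, Xanthium strumarium and Oryza sativa, treated both before emergence and at the 1- to 4-leaf stage; rice and barnyardgrass were also tested under flooding at 2 leaves. Greenhouse incubation lasted 13–15 days before visual 0–100 scoring.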

[6] = tested on: morningglory; experiment: Test A pre-/postemergence herbicide test; format: in vivo, Ipomoea spp.
Summary of the method: as §2

[7] = tested on: morningglory; experiment: Test B pre-/postemergence herbicide test; format: in vivo, Ipomoea coccinea; details: for Morningglory plant response rating: postemergence
Summary of the method: (§3)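 Plants compared with untreated controls 13–15 days post-treatment and given a visual 0–100 injury score. Applications: preemergence to seeds; postemergence at 1- to 4-leaf (2–18 cm); paddy species flooded, 2-leaf stage. Vehicle non-phytotoxic, surfactant included.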

[8] = tested on: corn; experiment: Test B pre-/postemergence herbicide test; format: in vivo, Zea mays; details: for Corn plant response rating: postemergence
Summary of the method: as §1

[9] = tested on: giant foxtail; experiment: Test A pre-/postemergence herbicide test; format: in vivo, Setaria faberi
Summary of the method: as §2

[10] = tested on: wheat; experiment: Test B postemergence herbicide test; format: in vivo, Triticum aestivum; parameters: key to Wheat plant response rating: 0 = no effect, 100 = complete control; details: postemergence
Summary of the method: (§4)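 Visual ratings, 0 (no effect) to 100 (complete control), made versus controls after 13–15 d greenhouse. Paddy plants treated at 2-leaf stage; postemergence plants at 1- to 4-leaf stage, 2–18 cm tall.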

[11] = tested on: rice; experiment: Test B flooded paddy test; format: in vivo, Oryza sativa; details: 1000 g ai/ha, scale 0 to 100 (0 no effect, 100 complete control)
Summary of the method: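 Greenhouse test; postemergence application to plants at 1–4 leaves (2–18 cm); paddy species at 2 leaves; evaluated visually vs controls at 13–15 days; scale 0–100 (100 = complete control).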

[12] = tested on: barnyardgrass; experiment: Test B pre-/postemergence herbicide test; format: in vivo, Echinochloa crus-galli; details: for Barnyardgrass plant response rating: postemergence
Summary of the method: as §3

[13] = tested on: barnyardgrass; experiment: Test A pre-/postemergence herbicide test; format: in vivo, Echinochloa crus-galli
Summary of the method: as §2

[14] = tested on: blackgrass; experiment: Test B postemergence herbicide test; format: in vivo, Alopecurus myosuroides; details: postemergence
Summary of the method: (§5)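 Formulated test chemicals went onto postemergence plants measuring 2 to 18 cm, at one to four leaves. For the paddy assay, species had reached two leaves. Scoring took place 13–15 days later by eye, relative to untreated plants, using 0 for no effect up to 100 for full control.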

[15] = tested on: small flower umbrella sedge; experiment: Test B flooded paddy test; format: in vivo, Cyperus difformis; details: 1000 g ai/ha, scale 0 to 100 (0 no effect, 100 complete control)
Summary of the method: as §5

[16] = tested on: cocklebur; experiment: Test B pre-/postemergence herbicide test; format: in vivo, Xanthium strumarium; details: for Cocklebur plant response rating: postemergence
Summary of the method: as §3

[17] = tested on: giant foxtail; experiment: Test B pre-/postemergence herbicide test; format: in vivo, Setaria faberi; details: for Foxtail, Giant plant response rating: postemergence
Summary of the method: as §1

[18] = tested on: velvetleaf; experiment: Test B pre-/postemergence herbicide test; format: in vivo, Abutilon theophrasti; details: for Velvetleaf plant response rating: postemergence
Summary of the method: as §1

[19] = tested on: ducksalad; experiment: Test B flooded paddy test; format: in vivo, Heteranthera limosa; details: 1000 g ai/ha, scale 0 to 100 (0 no effect, 100 complete control)
Summary of the method: as §5

[20] = tested on: velvetleaf; experiment: Test A pre-/postemergence herbicide test; format: in vivo, Abutilon theophrasti
Summary of the method: as §2

[21] = tested on: barnyardgrass; experiment: Test B flooded paddy test; format: in vivo, Echinochloa crus-galli; details: 1000 g ai/ha, scale 0 to 100 (0 no effect, 100 complete control)
Summary of the method: as §5

[22] = tested on: pigweed; experiment: Test B pre-/postemergence herbicide test; format: in vivo, Amaranthus retroflexus; details: for Pigweed plant response rating: postemergence
Summary of the method: as §1

[23] = tested on: lambsquarters; experiment: Test B pre-/postemergence herbicide test; format: in vivo, Chenopodium album; details: for Lambsquarters plant response rating: postemergence
Summary of the method: as §1

[24] = tested on: wild oat; experiment: Test B postemergence herbicide test; format: in vivo, Avena fatua; details: postemergence
Summary of the method: as §4

[25] = 125 g ai/ha, 0 is no effect, 100 is complete control, preemergence
[26] = 125 g ai/ha, visual rating, scale 0 (no effect) to 100 (complete control)
[27] = 500 g ai/ha, visual rating, 0 = no effect, 100 = complete control, preemergence
[28] = 500 g ai/ha, scale 0 to 100, 0 is no effect, 100 is complete control
[29] = Postemergence, 500 g ai/ha, 0 to 100 scale, 0 no effect, 100 complete control
[30] = Postemergence, 2000 g ai/ha, 0 to 100 scale, 0 no effect, 100 complete control
[31] = Preemergence, 2000 g ai/ha, visual rating, 0 to 100 scale (0 no effect, 100 complete control)
[32] = preemergence, 500 g ai/ha, visual injury, 0 to 100 scale (0 no effect, 100 complete control)

Q: What does the source list for `CCSCNC(=O)c1cccc(NC(=O)c2cc(C(C)(C)C)nn2CC)c1` [Compound 329]?
A: Plant response rating (0 to 100 scale), Surinam Grass [1, 25]: 0; Surinam Grass plant response rating [1, 26]: 10; Plant response rating, Surinam Grass [1, 27]: 0; Surinam Grass plant response rating [1, 28]: 20; Pigweed plant response rating [2, 29]: 10; Plant response rating, Pigweed [2, 30]: 45; Pigweed plant response rating [2, 31]: 10; Pigweed plant response rating [2, 32]: 5; Crabgrass, Large plant response rating [3, 29]: 10; Plant response rating, Crabgrass, Large [3, 30]: 5; Crabgrass, Large plant response rating [3, 31]: 0; Crabgrass, Large plant response rating [3, 32]: 0; Plant response rating (0 to 100 scale), Crabgrass, Large [4, 25]: 0; Crabgrass, Large plant response rating [4, 26]: 0; Plant response rating, Crabgrass, Large [4, 27]: 0; Crabgrass, Large plant response rating [4, 28]: 10; Plant response rating (0 to 100 scale), Rice ([5]; 125 g ai/ha, 0 is no effect, 100 is complete control): 0; Plant response rating, Rice ([5]; 500 g ai/ha, visual rating, 0 = no effect, 100 = complete control): 0; Morningglory plant response rating [6, 29]: 10; Plant response rating, Morningglory [6, 30]: 20; Morningglory plant response rating [6, 31]: 10; Morningglory plant response rating [6, 32]: 0; Plant response rating (0 to 100 scale), Morningglory [7, 25]: 0; Morningglory plant response rating [7, 26]: 0; Plant response rating, Morningglory [7, 27]: 0; Morningglory plant response rating [7, 28]: 20; Plant response rating (0 to 100 scale), Corn [8, 25]: 0; Corn plant response rating [8, 26]: 0; Plant response rating, Corn [8, 27]: 0; Corn plant response rating [8, 28]: 20; Foxtail, Giant plant response rating [9, 29]: 10; Plant response rating, Foxtail, Giant [9, 30]: 20; Foxtail, Giant plant response rating [9, 31]: 5; Foxtail, Giant plant response rating [9, 32]: 0; Wheat plant response rating [10, 26]: 20; Wheat plant response rating [10, 28]: 30; Rice plant response rating [11]: 0; Plant response rating (0 to 100 scale), Barnyardgrass [12, 25]: 0; Barnyardgrass plant response rating [12, 26]: 0; Plant response rating, Barnyardgrass [12, 27]: 0; Barnyardgrass plant response rating [12, 28]: 10; Barnyardgrass plant response rating [13, 29]: 15; Plant response rating, Barnyardgrass [13, 30]: 20; Barnyardgrass plant response rating [13, 31]: 5; Barnyardgrass plant response rating [13, 32]: 0; Blackgrass plant response rating [14, 26]: 20; Blackgrass plant response rating [14, 28]: 20; Sedge, Umbrella plant response rating [15]: 0; Plant response rating (0 to 100 scale), Cocklebur [16, 25]: 0; Cocklebur plant response rating [16, 26]: 0; Plant response rating, Cocklebur [16, 27]: 0; Cocklebur plant response rating [16, 28]: 30; Plant response rating (0 to 100 scale), Foxtail, Giant [17, 25]: 0; Foxtail, Giant plant response rating [17, 26]: 10; Plant response rating, Foxtail, Giant [17, 27]: 0; Foxtail, Giant plant response rating [17, 28]: 30; Plant response rating (0 to 100 scale), Velvetleaf [18, 25]: 0; Velvetleaf plant response rating [18, 26]: 10; Plant response rating, Velvetleaf [18, 27]: 0; Velvetleaf plant response rating [18, 28]: 30; Ducksalad plant response rating [19]: 0; Velvetleaf plant response rating [20, 29]: 10; Plant response rating, Velvetleaf [20, 30]: 25; Velvetleaf plant response rating [20, 31]: 10; Velvetleaf plant response rating [20, 32]: 0; Barnyardgrass plant response rating [21]: 0; Plant response rating (0 to 100 scale), Pigweed [22, 25]: 0; Pigweed plant response rating [22, 26]: 50; Plant response rating, Pigweed [22, 27]: 0; Pigweed plant response rating [22, 28]: 80; Plant response rating (0 to 100 scale), Lambsquarters [23, 25]: 0; Lambsquarters plant response rating [23, 26]: 30; Lambsquarters plant response rating [23, 28]: 70; Oat, Wild plant response rating [24, 26]: 20; Oat, Wild plant response rating [24, 28]: 30
